Results published in patent publication US20220332695A1, “UREA DERIVATIVES AS CB1 ALLOSTERIC MODULATORS” (RTI INTERNATIONAL, priority 2019, published 2022).
Read-outs that look alike come from different tables or passages of the source.

Experiments:
mouse CB1R = molecular target: T1, mouse CB1R (Mus musculus, UniProt P47746); assay: [35S]GTPγS binding assay in mouse cerebellum membranes; assay type: biochemical
T1 construct: membranes (10 μg protein) from either ICR mouse cerebellum mice; from tissue; host or cells: cerebellum membranes of ICR mice

hCB1R [1] = molecular target: T2, hCB1R (Homo sapiens, UniProt P21554); assay: Calcium mobilization assay, antagonist mode against CP55,940; assay type: cell-based; design: expressed in transfected cells; host or cells: CHO-RD-HGA16 cells (parental line from Molecular Devices)
hCB1R [2] = molecular target: T2, hCB1R; assay: [35S]GTPγS binding assay in HEK cells stably expressing human CB1R; assay type: biochemical; design: expressed in transfected cells; host or cells: HEK (HEK293) cells, membranes; conditions: [CP] = 100 nM, mean (95% confidence interval), read-out: hCB1R [35S]GTPγS binding assay IC50
[3] = Tables 4-6, CP55,940 concentration not stated, mean (95% confidence interval), read-out: mCB1R [35S]GTPγS binding assay IC50
[4] = CHO cells expressing human CB1R, against CP55,940 (100 nM), mean ± SEM, read-out: hCB1R Calcium assay IC50

T2 sequence (P21554 whole entry): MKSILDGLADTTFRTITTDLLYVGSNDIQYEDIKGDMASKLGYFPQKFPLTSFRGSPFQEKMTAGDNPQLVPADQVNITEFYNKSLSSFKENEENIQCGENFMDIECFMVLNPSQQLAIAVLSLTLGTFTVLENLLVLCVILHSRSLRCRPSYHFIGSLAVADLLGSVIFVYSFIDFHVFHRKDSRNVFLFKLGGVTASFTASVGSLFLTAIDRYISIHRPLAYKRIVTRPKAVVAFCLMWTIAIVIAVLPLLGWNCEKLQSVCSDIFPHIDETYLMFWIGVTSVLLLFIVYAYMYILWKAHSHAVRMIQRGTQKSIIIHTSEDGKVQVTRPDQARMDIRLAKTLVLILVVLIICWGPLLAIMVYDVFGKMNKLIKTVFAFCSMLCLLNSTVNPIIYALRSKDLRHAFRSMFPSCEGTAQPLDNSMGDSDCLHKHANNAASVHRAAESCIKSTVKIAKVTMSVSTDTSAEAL
T1 sequence (P47746 whole entry): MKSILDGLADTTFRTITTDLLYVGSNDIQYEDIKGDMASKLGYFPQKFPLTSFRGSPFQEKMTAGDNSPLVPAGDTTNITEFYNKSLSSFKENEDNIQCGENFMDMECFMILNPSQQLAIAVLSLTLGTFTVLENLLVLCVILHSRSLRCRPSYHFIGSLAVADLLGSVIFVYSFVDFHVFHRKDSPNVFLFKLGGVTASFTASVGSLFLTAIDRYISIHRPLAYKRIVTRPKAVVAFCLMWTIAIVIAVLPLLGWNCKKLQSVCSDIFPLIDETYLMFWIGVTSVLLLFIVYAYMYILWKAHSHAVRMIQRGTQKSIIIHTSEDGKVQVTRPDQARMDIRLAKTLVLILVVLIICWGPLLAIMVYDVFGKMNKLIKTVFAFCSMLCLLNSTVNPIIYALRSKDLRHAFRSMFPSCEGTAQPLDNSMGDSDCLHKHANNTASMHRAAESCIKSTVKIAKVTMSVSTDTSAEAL

IC50 (hCB1R [1]; [4]) [nM]	Molecule	IC50 (hCB1R [1]) [nM]	other results
1220 ± 188	O=C(Nc1ccc(Cl)cc1)N[C@@H]1C[C@H]1c1ccccc1 (racemic) [Compound 15, trans-1-(4-Chlorophenyl)-3-(2-phenylcyclopropyl)urea]	–	IC50 (hCB1R [2]): > 10000 nM
> 10000	O=C(Nc1ccc(Cl)cc1)N[C@@H]1C[C@@H]1c1ccccc1 (relative stereo) [Compound 16, cis-1-(4-Chlorophenyl)-3-(2-phenylcyclopropyl)urea]	–	IC50 (hCB1R [2]): > 10000 nM
2610 ± 548	O=C(NC[C@@H]1C[C@H]1c1ccccc1)Nc1ccc(Cl)cc1 (relative stereo) [Compound 43, trans-1-(4-Chlorophenyl)-3-[(2-phenylcyclopropyl)methyl]urea]	–	–
3700 ± 481	O=C(NCCCc1ccccc1)Nc1ccc(Cl)cc1 [Compound 37, 3-(4-Chlorophenyl)-1-(3-phenylpropyl)urea]	–	–
1580 ± 328	O=C(NCC(F)(F)c1ccccc1)Nc1ccc(Cl)cc1 [Compound 39, 3-(4-Chlorophenyl)-1-(2,2-difluoro-2-phenylethyl)urea]	–	–
5160 ± 1150	O=C(NCC1(c2ccccc2)CC1)Nc1ccc(Cl)cc1 [Compound 41, 1-(4-Chlorophenyl)-3-[(1-phenylcyclopropyl)methyl]urea]	–	–
–	O=C(NCCc1ccccc1)Nc1ccc(Cl)cc1 [Compound 44, 3-(4-Chlorophenyl)-1-(2-phenylethyl)urea]	193 ± 35	–
–	CC(C)(C)c1ccc(CCNC(=O)Nc2ccc(Cl)cc2)cc1 [Compound 45, 1-[2-(4-tert-Butylphenyl)ethyl]-3-(4-chlorophenyl)urea]	573 ± 105	–
–	O=C(NCCc1ccc(-c2ccccc2)cc1)Nc1ccc(Cl)cc1 [Compound 46, 3-(4-Chlorophenyl)-1-[2-(4-phenylphenyl)ethyl]urea]	897 ± 167	–
–	O=C(NCCc1ccc([N+](=O)[O-])cc1)Nc1ccc(Cl)cc1 [Compound 48, 3-(4-Chlorophenyl)-1-[2-(4-nitrophenyl)ethyl]urea]	87 ± 12	IC50 (mouse CB1R; [3]): 780 nM
–	COc1cc(CCNC(=O)Nc2ccc(Cl)cc2)ccc1O [Compound 49, 3-(4-Chlorophenyl)-1-[2-(4-hydroxy-3-methoxyphenyl)ethyl]urea]	> 10000	–
–	CN(C)c1cccc(CCNC(=O)Nc2ccc(Cl)cc2)c1 [Compound 50, 3-(4-Chlorophenyl)-1-{2-[3-(dimethylamino)phenyl]ethyl}urea]	1680 ± 284	IC50 (mouse CB1R): 592 nM
–	CN(C)c1ccc(CCNC(=O)Nc2ccc(Cl)cc2)cc1 [Compound 51, 3-(4-Chlorophenyl)-1-{2-[4-(dimethylamino)phenyl]ethyl}urea]	323 ± 88	IC50 (mouse CB1R): 1590 nM
–	CS(=O)(=O)c1ccc(CCNC(=O)Nc2ccc(Cl)cc2)cc1 [Compound 52, 3-(4-Chlorophenyl)-1-[2-(4-methanesulfonylphenyl)ethyl]urea]	> 10000	–
–	COc1ccccc1CCNC(=O)Nc1ccc(Cl)cc1 [Compound 53, 3-(4-Chlorophenyl)-1-[2-(2-methoxyphenyl)ethyl]urea]	1620 ± 248	–
–	COc1cccc(CCNC(=O)Nc2ccc(Cl)cc2)c1 [Compound 54, 3-(4-Chlorophenyl)-1-[2-(3-methoxyphenyl)ethyl]urea]	485 ± 93	–
–	COc1ccc(CCNC(=O)Nc2ccc(Cl)cc2)cc1OC [Compound 56, 3-(4-Chlorophenyl)-1-[2-(3,4-dimethoxyphenyl)ethyl]urea]	1860 ± 319	–
–	O=C(NCCc1ccc(O)cc1)Nc1ccc(Cl)cc1 [Compound 58, 3-(4-Chlorophenyl)1-[2-(4-hydroxyphenyl)ethyl]urea]	> 10000	–
–	Cc1ccc(CCNC(=O)Nc2ccc(Cl)cc2)cc1 [Compound 59, 3-(4-Chlorophenyl)1-[2-(4-methylphenyl)ethyl]urea]	137 ± 21	–
–	Cc1cccc(CCNC(=O)Nc2ccc(Cl)cc2)c1 [Compound 60, 3-(4-Chlorophenyl)1-[2-(3-methylphenyl)ethyl]urea]	45 ± 9	IC50 (mouse CB1R; [3]): 4180 nM
–	O=C(NCCc1ccccc1F)Nc1ccc(Cl)cc1 [Compound 61, 3-(4-Chlorophenyl)1-[2-(2-fluorophenyl)ethyl]urea]	174 ± 27	–
–	O=C(NCCc1cccc(F)c1)Nc1ccc(Cl)cc1 [Compound 62, 3-(4-Chlorophenyl)-1-[2-(3-fluorophenyl)ethyl]urea]	53 ± 9	IC50 (mouse CB1R; [3]): 1520 nM

IC50 (hCB1R [1]; [4]) [nM]	Molecule	IC50 (hCB1R [1]) [nM]	other results
–	O=C(NCCc1ccc(F)cc1)Nc1ccc(Cl)cc1 [Compound 63, 3-(4-Chlorophenyl)1-[2-(4-fluorophenyl)ethyl]urea]	108 ± 19	–
–	O=C(NCCc1ccc(F)c(F)c1)Nc1ccc(Cl)cc1 [Compound 64, 3-(4-Chlorophenyl)-1-[2-(3,4-difluorophenyl)ethyl]urea]	47 ± 5	–
–	O=C(NCCc1c(F)cc(F)cc1F)Nc1ccc(Cl)cc1 [Compound 65, 3-(4-Chlorophenyl)-1-[2-(2,4,6-trifluorophenyl)ethyl]urea]	81 ± 9	–
–	O=C(NCCc1c(F)c(F)c(F)c(F)c1F)Nc1ccc(Cl)cc1 [Compound 66, 3-(4-Chlorophenyl)1-[2-(2,3,4,5,6-pentafluorophenyl)ethyl]urea]	34 ± 7	–
–	O=C(NCCc1ccccc1Cl)Nc1ccc(Cl)cc1 [Compound 67, 3-(4-Chlorophenyl)1-[2-(2-chlorophenyl)ethyl]urea]	237 ± 35	–
–	O=C(NCCc1ccc(Cl)cc1Cl)Nc1ccc(Cl)cc1 [Compound 69, 3-(4-Chlorophenyl)1-[2-(2,4-dichlorophenyl)ethyl]urea]	174 ± 34	–
–	O=C(NCCc1c(F)cccc1Cl)Nc1ccc(Cl)cc1 [Compound 70, 3-(4-Chlorophenyl)1-[2-(2-chloro-6-fluorophenyl)ethyl]urea]	408 ± 66	–
–	O=C(NCCc1ccc(Br)cc1)Nc1ccc(Cl)cc1 [Compound 71, 3-(4-Chlorophenyl)1-[2-(4-bromophenyl)ethyl]urea]	151 ± 20	–
–	N#Cc1ccc(CCNC(=O)Nc2ccc(Cl)cc2)cc1 [Compound 72, 3-(4-Chlorophenyl)1-[2-(4-cyanophenyl)ethyl]urea]	443 ± 53	–
–	O=C(NCCc1ccccc1C(F)(F)F)Nc1ccc(Cl)cc1 [Compound 73, 3-(4-Chlorophenyl)-1-{2-[2-(trifluoromethyl)phenyl]ethyl}urea]	143 ± 34	–
–	O=C(NCCc1cccc(C(F)(F)F)c1)Nc1ccc(Cl)cc1 [Compound 74, 3-(4-Chlorophenyl)-1-{2-[3-(trifluoromethyl)phenyl]ethyl}urea]	32 ± 7	IC50 (mouse CB1R; [3]): 766 nM
–	O=C(NCCc1ccc(C(F)(F)F)cc1)Nc1ccc(Cl)cc1 [Compound 75, 3-(4-Chlorophenyl)-1-{2-[4-(trifluoromethyl)phenyl]ethyl}urea]	194 ± 38	–
> 10000	O=C(NCCc1ccncc1)Nc1ccc(Cl)cc1 [Compound 76, 3-(4-Chlorophenyl)-1-[2-(pyridin-4-yl)ethyl]urea]	–	–
> 10000	O=C(NCCc1cccnc1)Nc1ccc(Cl)cc1 [Compound 77, 3-(4-Chlorophenyl)-1-[2-(pyridin-3-yl)ethyl]urea]	–	–
3630 ± 687	O=C(NCCc1ccccn1)Nc1ccc(Cl)cc1 [Compound 78, 3-(4-Chlorophenyl)-1-[2-(pyridin-2-yl)ethyl]urea]	–	–
255 ± 40	Cc1ccc(CCNC(=O)Nc2ccc(Cl)cc2)o1 [Compound 79, 1-(4-Chlorophenyl)-3-[2-(5-methylfuran-2-yl)ethyl]urea]	–	IC50 (mouse CB1R; [3]): 2780 nM
> 10000	CN1CCN(CCNC(=O)Nc2ccc(Cl)cc2)CC1 [Compound 80, 3-(4-Chlorophenyl)-1-[2-(4-methylpiperazin-1-yl)ethyl]urea]	–	–
> 10000	O=C(NCCN1CCCCC1)Nc1ccc(Cl)cc1 [Compound 81, 3-(4-Chlorophenyl)-1-[2-(piperidin-1-yl)ethyl]urea]	–	–
> 10000	O=C(NCCN1CCOCC1)Nc1ccc(Cl)cc1 [Compound 82, 3-(4-Chlorophenyl)-1-[2-(morpholin-4-yl)ethyl]urea]	–	–
> 10000	O=C(NCCN1CCCC1)Nc1ccc(Cl)cc1 [Compound 83, 1-(4-Chlorophenyl)-3-[2-(pyrrolidin-1-yl)ethyl]urea]	–	–
1830 ± 362	CC(=O)NCCNC(=O)Nc1ccc(Cl)cc1 [Compound 84, N-(2-{[(4-Chlorophenyl)carbamoyl]amino}ethyl)acetamide]	–	–

Molecule	IC50 (hCB1R [1]; [4]) [nM]	IC50 (hCB1R [1]) [nM]	other results
3-(4-Chlorophenyl)-1-[2-(3-methoxyphenyl)ethyl]urea [Compound 55]	228 ± 45	–	IC50 (mouse CB1R; [3]): 3720 nM
COc1ccc(-c2cccc(N3CCCC3)n2)cc1NC(=O)Nc1ccc(Cl)cc1 [Compound 6, 3-(4-Chlorophenyl)-1-{2-methoxy-5-[6-(pyrrolidin-1-yl)pyridin-2-yl]phenyl}urea]	1270	–	IC50 (hCB1R [2]): > 10000 nM
O=C(Nc1ccc(Cl)cc1)Nc1csc(-c2ccccc2)c1 [Compound 13, 1-(4-Chlorophenyl)-3-(5-phenylthiophen-3-yl)urea]	60 ± 8	–	IC50 (hCB1R [2]): 888 nM
O=C(Nc1ccc(Cl)cc1)Nc1ccc(-c2cccc(F)c2)s1 [Compound 19, 1-(4-Chlorophenyl)-3-[5-(3-fluorophenyl)thiophen-2-yl]urea]	39 ± 6	–	IC50 (hCB1R [2]): 425 nM
O=C(Nc1ccc(Cl)cc1)Nc1ccc(-c2cccc(Cl)c2)s1 [Compound 22, 1-(4-Chlorophenyl)-3-[5-(3-chlorophenyl)thiophen-2-yl]urea]	40 ± 7	–	IC50 (hCB1R [2]): 553 nM
O=C(Nc1ccc(Cl)cc1)Nc1ccc(-c2ccc(Cl)cc2)s1 [Compound 23, 1-(4-Chlorophenyl)-3-[5-(4-chlorophenyl)thiophen-2-yl]urea]	43 ± 7	–	IC50 (hCB1R [2]): 774 nM
O=C(Nc1ccc(Cl)cc1)Nc1ccc(-c2ccc(Cl)c(Cl)c2)s1 [Compound 24, 1-(4-Chlorophenyl)-3-[5-(3,4-dichlorophenyl)thiophen-2-yl]urea]	111 ± 14	–	IC50 (hCB1R [2]): 1720 nM
